{
  "source": "patent US9701667B2",
  "about": "“Coumarin-based fluorogenic agents and uses thereof for specific protein labelling” (UNIVERSITY OF OTTAWA, priority 2014, dated 2017)",
  "key": {"[1]": {"assay": "Aqueous solubility", "type": "physicochemical"}, "[2]": {"tested_on": "HEK293T cells", "assay": "MTT cytotoxicity assay", "type": "cell-based, human", "details": "20 h incubation", "protocol": "3-(4,5-Dimethylthiazol-2-yl)-2,5-diphenyl tetrazolium bromide (MTT) is a yellow tetrazolium salt and can be reduced to formazan crystals, which are insoluble in aqueous solutions, by active mitochondria in living cells. The resulting intracellular purple formazan can be dissolved in Triton X100, and therefore quantified by measuring absorption of the solution.\nCells were seeded in a 96-well plate and incubated with 100 μL of culture medium with different amounts of the fluorogen YCx for 16 h. No fluorogen was added to the positive control and no cells were plated in the negative control. Portions of 25 μL of MTT solution (5 mg in 1 mL of Hanks' balanced salt solution) were added to the wells and the cells were further incubated at 37° C. for 4 h. Solubilization solutions (100 μL) were then added and incubated in 96-well plates at room temperature in the dark overnight. The absorption of each well was measured using a plate reader at a wavelength of 570 nm with 690 nm as a reference. Cell viability was calculated according to the following equation: Cell viability=(Awith fluorogen−Anegative control)/(Apositive control−Anegative control)."}, "[3]": {"assay": "Kinetic studies of consecutive thiol addition reactions with model thiol MPA", "details": "for first thiol addition faster than second addition: ratio of first to second MPA addition rate; for k1 / k2: second order rate constant, 50 mM HEPES pH 7.4, 5% DMSO, 37° C.; for k1: first thiol addition of MPA; for k2: second thiol addition of MPA", "protocol": "Kinetic studies were then performed for the thiol addition reactions of YC5 and YC9 with 3-mercaptopropionic acid (MPA) as a water-soluble, nucleophilic model thiol (Scheme 13). Reactions were run in the presence of a large excess of MPA, making them pseudo-first order in fluorogen. The resulting time-dependent increase in fluorescence was fit to a model for consecutive first order reactions, providing pseudo-first order rate constants for both addition steps. The concentration of MPA was then varied, allowing second order rate constants to be calculated for both steps.\nwhere I is fluorescence intensity, and the fluorescence intensity is linearly proportional to the concentration, since the concentration of fluorogen used here is within the linear range. So IA=a*[A]; IB=b*[B]; IP=p*[P]; [A]0=2.5*10^−5. With this formula, there will be 5 parameters, but based on the nature of the reaction and the fluorescent properties of the compounds, the 5 parameters can be restrained as: p>b>a>0; k1>k2>0. Finally, the formula and the conditions were applied in Origin 6.0 to fit the curves by non-linear regression, yielding values for the kobs for each step.\nKinetic experiments were carried out at 37° C. using Synergy H4 Hybrid Multi-Mode Microplate Reader with excitation and emission monochromators 9 nm bandpass. Solutions with different MPA concentrations were prepared in 96-well plate and labelling reagent (YC5 or YC9) in DMSO was added immediately before recording. The final concentration of labelling reagent was 25 μM and the final concentrations of MPA were 0.875 mM, 1 mM, 1.125 mM or 1.25 mM in 50 mM HEPES buffer (pH 7.4) with 5% DMSO (FIG. 12). Samples were excited at 440 nm and fluorescence intensity was followed at 485 nm as a function of time. All the time-dependent fluorescence increase curves were fitted by non-linear regression according to the formula from the last section using Origin to get kobs. kobs was plotted against MPA concentrations to obtain a second order rate constant."}, "[4]": {"tested_on": "cmyc-mNeptune-dC10α", "assay": "Intracellular labelling of test protein in transfected cells (YC9)", "type": "cell-based, human", "source_text": "The red fluorescent protein mNeptune was chosen as a target protein so that its intrinsic fluorescence would serve as a control for the transfection and expression of the target protein. The target sequence dC10α was cloned to its C-terminus and the cmyc epitope (which would ensure the protein was also at least partially directed to the nucleus) was cloned to its N-terminus. […] Furthermore, fluorescent labelling was most intense and nearly limited to cells (FIG. 11D) that expressed the target red fluorescent test protein (FIG. 11E).\nHEK 293T cells were plated into 6-well plates equipped with 25 mm×25 mm coverslips and grown in DMEM supplemented with 10% FBS 16 h before transfection. Cells were transiently transfected with mNeptune-dC10α or pcDNA3.1 using lipofectamine 2000. Either 24 or 48 h after transfection, the cells were washed with complete DMEM and incubated with 25 μM YC9 in DMEM for 30 min at 37° C. The media with labelling reagent was removed and followed by 3 times washing over 3 h at 37° C. Cells were fixed after labelling for imaging on a Carl Zeiss Axiophot inverted microscope."}, "[5]": {"tested_on": "MBP-dC10α", "assay": "Fluorescence properties and fluorescence enhancement (FE) before/after labelling of model target protein", "type": "biochemical", "details": "for Fluorescence enhancement (FE): after labelling with MBP-dC10, λex = 440 nm, λem = 485 nm, 50 mM HEPES pH 7.4; for fluorescence after the labelling reaction: after reaction with MBP-dC10α; for background (intrinsic) fluorescence before labelling / quenching: fluorogen without target protein", "protocol": "For experiments described herein, maltose-binding protein (MBP) was chosen as a highly-soluble test protein and the dC10α tag was fused to its C-terminus (MBP-dC10α) as described previously (Guy, J. et al., Mol. Biosyst. 2010, 6, 976-987).\nEmission spectra and fluorescence intensity measurements were recorded at 37° C. with a Synergy H4 Hybrid Multi-Mode Microplate Reader with excitation and emission monochromators set at 9 nm bandpass. The mixture of 100 μM solution of fluorogen (YCx) and 100 μM MBP-dC10 in 50 mM HEPES buffer (pH 7.4) with 5% DMSO was incubated at 37° C. in the dark for 12 hours, after which the fluorescence emission spectrum of a dilution (25 μM final) in 50 mM HEPES buffer with 5% DMSO was recorded. The emission spectra of the corresponding labelling reagent in same solution without MBP-dC10α were also recorded. The ratio of fluorescence intensity at maximum emission gave the fluorescence enhancement (FE) ratio."}, "[6]": {"tested_on": "MBP-dC10α", "assay": "Time-dependent fluorescence increase on reaction with test protein", "type": "biochemical", "protocol": "(§1) Reactivity was tested through the time-dependent fluorescence increase at 37° C. using Synergy H4 Hybrid Multi-Mode Microplate Reader with excitation and emission monochromators set to 9 nm bandpass. All reactions were prepared in 50 mM HEPES buffer (pH 7.4) with 5% DMSO. Solutions of MBP-dC10α or GSH were prepared in 96-well plates and labelling reagent (YCx) in DMSO was added immediately before recording. The final concentration of labelling reagent was 25 μM, the final concentration of MBP-dC10α was 25 μM and the final concentration of GSH was 50 μM or 1 mM in 50 mM HEPES buffer (pH 7.4) with 5% DMSO. Samples were excited at 440 nm and fluorescence intensity was followed at 485 nm as a function of time."}, "[7]": {"assay": "Time-dependent fluorescence increase on reaction with GSH", "details": "for reaction with GSH: 50 mM HEPES pH 7.4", "protocol": "as §1"}},
  "note": "“Also recorded” adds a separate entry of the source.",
  "data": [
    {"smiles": "COc1ccc2cc(C(=O)Nc3cc(N4C(=O)C=C(C)C4=O)cc(N4C(=O)C=C(C)C4=O)c3)c(=O)oc2c1", "note": "[YC26, N-(3,5-bis(3-methyl-2,5-dioxo-2,5-dihydro-1H-pyrrol-1-yl)phenyl)-7-methoxy-2-oxo-2H-chromene-3-carboxamide]", "values": [
      {"measurement": "aqueous solubility", "setting": "[1]", "result": "poor aqueous solubility"}
    ]},
    {"smiles": "COC(=O)CCN(CCC(=O)OC)c1ccc2cc(C(=O)Nc3cc(N4C(=O)C=C(OC)C4=O)cc(N4C(=O)C=C(OC)C4=O)c3)c(=O)oc2c1", "note": "[YC21M, Dimethyl 3,3′-((3-((3,5-bis(3-methoxy-2,5-dioxo-2,5-dihydro-1H-pyrrol-1-yl)phenyl)carbamoyl)-2-oxo-2H-chromen-7-yl)azanediyl)dipropanoate]", "values": [
      {"measurement": "cytotoxicity (cell viability, MTT)", "setting": "[2]", "result": "neither showed any cytotoxicity up to 100 μM"}
    ]},
    {"smiles": "CCN(CC)c1ccc2cc(C(=O)Nc3cc(N4C(=O)C=C(C)C4=O)cc(N4C(=O)C=C(OC)C4=O)c3)c(=O)oc2c1", "note": "[YC9, 7-(Diethylamino)-N-(3-(3-methoxy-2,5-dioxo-2,5-dihydro-1H-pyrrol-1-yl)-5-(3-methyl-2,5-dioxo-2,5-dihydro-1H-pyrrol-1-yl)phenyl)-2-oxo-2H-chromene-3-carboxamide]", "values": [
      {"measurement": "first thiol addition faster than second addition", "setting": "[3]", "result": 63, "unit": "times"},
      {"measurement": "k1", "setting": "[3]", "result": "2.480 ± 0.216", "unit": "M⁻¹ s⁻¹"},
      {"measurement": "k2", "setting": "[3]", "result": "0.0388 ± 0.0133", "unit": "M⁻¹ s⁻¹"},
      {"measurement": "selectivity of labelling dC10α-tagged target protein in living cells", "setting": "[4]; HEK293 cells transfected with cmyc-mNeptune-dC10α, 25 μM YC9, 30 min", "result": "high selectivity"},
      {"measurement": "background fluorescence in mock-transfected cells", "setting": "[4]; cells transfected with empty (mock) vector, 25 μM YC9", "result": "minimal background fluorescence"},
      {"measurement": "Fluorescence enhancement (FE)", "setting": "[5]", "result": 62},
      {"measurement": "fluorescence after the labelling reaction", "setting": "[5]", "result": "strongly fluorescent"},
      {"measurement": "background (intrinsic) fluorescence before labelling / quenching", "setting": "[5]", "result": "negligible background fluorescence"},
      {"measurement": "reactivity with test protein MBP-dC10", "setting": "[6]; 25 μM fluorogen, 25 μM MBP-dC10, 50 mM HEPES pH 7.4", "result": "still rapid"},
      {"measurement": "reaction with low concentration of GSH", "setting": "[7]; 25 μM fluorogen, 50 μM GSH", "result": "did not react"},
      {"measurement": "reaction with high concentration (large excess) of GSH", "setting": "[7]; 25 μM fluorogen, 1 mM GSH", "result": "showed some signal"},
      {"measurement": "reaction with GSH", "setting": "[7]", "result": "completely suppressed"},
      {"measurement": "melting point", "result": "88.3 to 93.7", "unit": "°C"}
    ]},
    {"smiles": "CCN(CC)c1ccc2cc(C(=O)Nc3cc(N4C(=O)C=C(C)C4=O)cc(N4C(=O)C=C(C)C4=O)c3)c(=O)oc2c1", "note": "[YC5, N-(3,5-bis(3-methyl-2,5-dioxo-2,5-dihydro-1H-pyrrol-1-yl)phenyl)-7-(diethylamino)-2-oxo-2H-chromene-3-carboxamide]", "values": [
      {"measurement": "first thiol addition faster than second addition", "setting": "[3]", "result": 7, "unit": "times"},
      {"measurement": "k1", "setting": "[3]", "result": "1.208 ± 0.249", "unit": "M⁻¹ s⁻¹"},
      {"measurement": "k2", "setting": "[3]", "result": "0.1571 ± 0.0510", "unit": "M⁻¹ s⁻¹"},
      {"measurement": "Fluorescence enhancement (FE)", "setting": "[5]", "result": 69},
      {"measurement": "fluorescence after the labelling reaction", "setting": "[5]", "result": "strong fluorescence; also recorded: strongly fluorescent"},
      {"measurement": "background (intrinsic) fluorescence before labelling / quenching", "setting": "[5]", "result": "negligible background fluorescence"},
      {"measurement": "selectivity of labelling target protein over GSH", "setting": "[6]; MBP-dC10 versus GSH", "result": "reacted faster with MBP-dC10α than with GSH"},
      {"measurement": "reaction with GSH", "setting": "[7]", "result": "still appreciable"}
    ]}
  ]
}
